Where two headings read alike, the source gives them in different places.
Legend:
TACE = target: T1, TACE (Homo sapiens, UniProt P78536); test: Procedure for Measuring TACE Inhibition; type: biochemical; conditions: for inhibition at 1 µM: read-out: TACE % inhibition at 1 µM
T1 construct: purchased Immunex
Procedure: Using 96-well black microtiter plates, each well receives a solution composed of 10 µL TACE (Immunex, final concentration 1µg/mL), 70µL Tris buffer, pH 7.4 containing 10% glycerol (final concentration 10 mM), and 10 µL of test compound solution in DMSO (final concentration 1µM, DMSO concentration <1%) and incubated for 10 minutes at room temperature. The reaction is initiated by addition of a fluorescent peptidyl substrate (final concentration 100 µM) to each well and then shaking on a shaker for 5 sec. The reaction is read (excitation 340 nm, emission 420 nm) for 10 min. and the increase in fluorescence over time is plotted as a linear line. The slope of the line is calculated and represents the reaction rate. The linearity of the reaction rate is confirmed (r^2 >0.85). The mean (x±sem) of the control rate is calculated and compared for statistical significance (p<0.05) with drug-treated rates using Dunnett's multiple comparison test.

MMP 13 = MMP 13 (Homo sapiens, UniProt P45452); test: MMP 13 inhibition (HTS; method not described); type: biochemical; conditions: HTS; for inhibition at 0.036 µM: read-out: MMP 13 % inhibition at 36 nM (HTS); for inhibition at 0.036 µM / MMP 13 % inhibition at 36 nM (HTS): 36 nM; for inhibition at 0.2 µM: read-out: MMP 13 % inhibition at 0.2 µM (HTS)

T1 sequence (P78536 215-824): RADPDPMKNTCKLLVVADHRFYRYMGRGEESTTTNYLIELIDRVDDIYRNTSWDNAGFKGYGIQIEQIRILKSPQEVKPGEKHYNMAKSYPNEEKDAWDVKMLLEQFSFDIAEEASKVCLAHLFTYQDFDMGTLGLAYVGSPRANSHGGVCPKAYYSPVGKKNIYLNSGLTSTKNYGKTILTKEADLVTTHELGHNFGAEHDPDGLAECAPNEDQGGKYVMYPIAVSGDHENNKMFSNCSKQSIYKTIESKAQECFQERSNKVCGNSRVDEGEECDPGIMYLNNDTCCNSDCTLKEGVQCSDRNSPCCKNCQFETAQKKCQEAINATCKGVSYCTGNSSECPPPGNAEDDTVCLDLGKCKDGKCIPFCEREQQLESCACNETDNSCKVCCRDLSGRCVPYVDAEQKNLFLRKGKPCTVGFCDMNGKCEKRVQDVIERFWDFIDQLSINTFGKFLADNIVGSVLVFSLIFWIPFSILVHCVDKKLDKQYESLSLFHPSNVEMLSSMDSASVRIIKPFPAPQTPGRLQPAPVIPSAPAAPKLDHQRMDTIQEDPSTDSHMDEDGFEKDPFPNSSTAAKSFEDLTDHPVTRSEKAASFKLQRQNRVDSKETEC

inhibition at 1 µM (TACE; Examples 169-240) [%]	inhibition at 0.036 µM (MMP 13) [%]	inhibition at 1 µM (TACE; Examples 110-168) [%]	inhibition at 0.2 µM (MMP 13) [%]	Compound	other results
85.5	-14			CCCCCCC(SCC1NC(=O)NC1=O)C(=O)NO (centres unmarked) [Example 187, 2-(2,5-Dioxo-imidazolidin-4-ylmethylsulfanyl)-octanoic acid hydroxyamide]	
72.1	29			CCCCCCC(Sc1ccc(N2CCCCC2)cc1)C(=O)NO (centres unmarked) [Example 230, 2-(4-Piperidin-1-yl-phenylsulfanyl)-octanoic acid hydroxyamide]	IC50 (TACE; Examples 169-240, read-out: TACE IC50): 700 nM
17.8	-33			CCCCCCC(C(=O)NO)S(=O)(=O)CC(=O)Nc1ccc2ccccc2c1 (centres unmarked) [Example 197, 2-(Naphthalen-2-ylcarbamoylmethanesulfonyl)-octanoic acid hydroxyamide]	
6.8	37			CCCCCCC(Sc1ccc(NC2CCCC2)cc1)C(=O)NO (centres unmarked) [Example 228, 2-(4-Cyclopentylamino-phenylsulfanyl)-octanoic acid hydroxyamide]	
41.6	23			CCCCCCC(Sc1ccc(N2CCNCC2)cc1)C(=O)NO (centres unmarked) [Example 231, 2-(4-Piperazin-1-yl-phenylsulfanyl)-octanoic acid hydroxyamide]	
34.4	29			CCCCCCC(Sc1ccc(NC)cc1)C(=O)NO (centres unmarked) [Example 229, 2-(4-Methylamino-phenylsulfanyl)-octanoic acid hydroxyamide]	
7.3	15			CCCCCCC(Sc1ccc(Nc2ccncc2)cc1)C(=O)NO (centres unmarked) [Example 227, 2-[4-(Pyridin-4-ylamino)-phenylsulfanyl]-octanoic acid hydroxyamide]	
33.2	-32			CCCCCCC(C(=O)NO)S(=O)(=O)c1cccc(C(=O)NO)c1 (centres unmarked) [Example 192, 3-(1-Hydroxycarbamoyl-heptylsulfonyl)-benzoic acid hydroxyamide]	
38.3	-35			CCCCCCC(C(=O)NO)[S+]([O-])c1cccc2cccnc12 (centres unmarked) [Example 190, 2-(Quinoline-8-sulfinyl)-octanoic acid hydroxyamide]	

Further lines, the compound ahead of its results:

Compound	inhibition at 1 µM (TACE; Examples 169-240) [%]	inhibition at 0.036 µM (MMP 13) [%]	inhibition at 1 µM (TACE; Examples 110-168) [%]	inhibition at 0.2 µM (MMP 13) [%]	other results
CCCCCCC(C(=O)NO)[S+]([O-])c1nc(-c2ccccc2)cs1 (centres unmarked) [Example 179, 2-(4-Phenyl-thiazole-2-sulfinyl)-octanoic acid hydroxyamide]	42.7	12			
3-Bromo-2-chloro-thiophene-2-sulfonic acid 4-(1-hydroxycarbamoyl-heptylsulfonyl)-hydroxyamide [Example 239]					TACE % inhibition at 1 µM (TACE; Examples 169-240): 45.9%; MMP 13 % inhibition at 36 nM (HTS) (MMP 13): 54%
CCC(SCC(=O)OC)C(=O)NO (centres unmarked) [Example 119, (1-Hydroxycarbamoyl-propane-1-sulfanyl)-acetic acid methyl ester]					TACE % inhibition at 1 µM (TACE; Examples 110-168): 7.8%; MMP 13 % inhibition at 0.2 µM (HTS) (MMP 13): 0%
CCCCCCC(Sc1nnnn1C)C(=O)NO (centres unmarked) [Example 176, 2-(1-Methyl-1H-tetrazol-5-ylsulfanyl)-octanoic acid hydroxyamide]	26.6	6			
O=C(CCC(Sc1ccc(Br)cc1)C(=O)NO)NO (centres unmarked) [Example 134, 4-Hydroxycarbamoyl-4-(4-bromo-benzenesulfanyl)-butyric acid hydroxyamide]					TACE % inhibition at 1 µM (TACE; Examples 110-168): -9.31%; MMP 13 % inhibition at 0.2 µM (HTS) (MMP 13): 25%
CCCCCCC(C(=O)NO)S(=O)(=O)c1nc(-c2ccccc2)cs1 (centres unmarked) [Example 182, 2-(4-Phenyl-thiazole-2-sulfonyl)-octanoic acid hydroxyamide]	28.6	-9			
COc1ccc(S(=O)(=O)C(C)C(=O)NO)cc1 (centres unmarked) [Example 110, N-Hydroxy-2-(4-methoxy-benzenesulfonyl)-propionamide]			17.6	75	
CCCCCCC(SCCc1cnccn1)C(=O)NO (centres unmarked) [Example 175, 2-(2-Pyrazin-2-yl-ethylsulfanyl)-octanoic acid hydroxyamide]	32.9	16			inhibition (MMP 13; read-out: MMP 13 % inhibition (HTS)): 37%
O=C(NO)C(Cc1ccccc1)[S+]([O-])c1ccc(O)cc1 (centres unmarked) [Example 126, 2-(4-Hydroxybenzenesulfinyl)-N-hydroxy-3-phenyl-propionamide]			10.4	25	
CC(C)C(Sc1ccc2ccccc2c1)C(=O)NO (centres unmarked) [Example 114, N-hydroxy-3-methyl-2-(naphthalen-2-ylsulfanyl)-butyramide]			0	0	
CC(C)C(C(=O)NO)S(=O)(=O)CCc1ccccc1 (centres unmarked) [Example 118, N-Hydroxy-3-methyl-2-phenethylsulfonyl-butyramide]			16.7	24	
CCCCCCC(C(=O)NO)[S+]([O-])c1ccc(OC)c(OC)c1 (centres unmarked) [Example 166, 2-(3,4-Dimethoxybenzenesulfinyl)-octanoic acid hydroxyamide]			4.16	9	
CC(C)C(C(=O)NO)S(=O)(=O)c1ccc2ccccc2c1 (centres unmarked) [Example 116, N-Hydroxy-3-methyl-2-(naphthalen-2-ylsulfonyl)-butyramide]			9.1	0	
(1-Hydroxycarbamoyl-propane-1-sulfanyl)-propionic acid hydroxyamide [Example 122]					TACE % inhibition at 1 µM (TACE; Examples 110-168): 3.1%; MMP 13 % inhibition at 0.2 µM (HTS) (MMP 13): 0%
(1-Hydroxycarbamoyl-propane-1-sulfinyl)-acetic acid hydroxy amide [Example 121]					TACE % inhibition at 1 µM (TACE; Examples 110-168): 6.1%; MMP 13 % inhibition at 0.2 µM (HTS) (MMP 13): 0%
Benzo[1,2,5]thiadiazole-4-sulfonic acid 4-(1-hydroxycarbamoyl-heptylsulfonyl)-hydroxyamide [Example 240]					TACE % inhibition at 1 µM (TACE; Examples 169-240): 40.3%; MMP 13 % inhibition at 36 nM (HTS) (MMP 13): 48%
CC(C)C(C(=O)NO)[S+]([O-])c1ccc2ccccc2c1 (centres unmarked) [Example 115, N-Hydroxy-3-methyl-2-(naphthalen-2-ylsulfinyl)-butyramide]			0	0	
CCCCCCC(Sc1nccs1)C(=O)NO (centres unmarked) [Example 186, 2-(Thiazol-2-ylsulfanyl)-octanoic acid hydroxyamide]	19.5	-14			
5-Pyridin-2-yl-thiophene-2-sulfonic acid 4(1-hydroxycarbamoyl-heptylsulfinyl)-hydroxy amide [Example 237]					TACE % inhibition at 1 µM (TACE; Examples 169-240): 38.2%; MMP 13 % inhibition at 36 nM (HTS) (MMP 13): 55%
COc1ccc(SC(C)C(=O)NO)cc1 (centres unmarked) [Example 111, N-Hydroxy-2-(4-methoxy-benzenesulfanyl)-propionamide]					TACE % inhibition at 1 µM (TACE; Examples 110-168): 40.4%; MMP 13 % inhibition at 0.2 µM (HTS) (MMP 13): 10%
5-Chloro-1,3-dimethyl-1H-pyrazole-4-sulfonic acid 4-(1-hydroxycarbamoyl-heptylsulfinyl)-hydroxyamide [Example 235]					TACE % inhibition at 1 µM (TACE; Examples 169-240): 48.3%; MMP 13 % inhibition at 36 nM (HTS) (MMP 13): 59%
O=C(NO)C(Cc1cnc[nH]1)[S+]([O-])c1ccc(Br)cc1 (centres unmarked) [Example 153, 2-(4-bromo-benzenesulfinyl)-N-hydroxy-3-(3H-imidazol-4-yl)-propionamide]			11.8	12	
O=C(CCC(C(=O)NO)S(=O)(=O)c1ccc(Br)cc1)NO (centres unmarked) [Example 136, 4-Hydroxycarbamoyl-4-(4-bromo-benzenesulfonyl)-butyric acid hydroxyamide]			42.7	89	
CCCCCCC(C(=O)NO)S(=O)(=O)c1ccc(OC)c(OC)c1 (centres unmarked) [Example 167, 2-(3,4-Dimethoxybenzenesulfonyl)-octanoic acid hydroxyamide]			8.96	27	
O=C(NO)C(Cc1cnc[nH]1)S(=O)(=O)c1ccc(Cl)cc1 (centres unmarked) [Example 154, 2-(4-chloro-benzenesulfonyl)-N-hydroxy-3-(3H-imidazol-4-yl)-propionamide]			13.1	89	
CC(C)CCS(=O)(=O)C(C)C(=O)NO (centres unmarked) [Example 113, N-Hydroxy-2-(3-methyl-butane-1-sulfonyl)-propionamide]			13.1	0	
O=C(NO)C(COCc1ccccc1)[S+]([O-])Cc1ccccc1Cl (centres unmarked) [Example 150, 3-Benzyloxy-N-hydroxy-2-(2-chloro-benzylsulfinyl)-propionamide]			1.82	54	
CCCCCCC(C(=O)NO)[S+]([O-])CCc1cnccn1 (centres unmarked) [Example 180, 2-(2-Pyrazin-2-yl-ethylsulfinyl)-octanoic acid hydroxyamide]	34.4	14			
CC(=O)Nc1ccc(S(=O)(=O)C(Cc2ccccc2)C(=O)NO)cc1 (centres unmarked) [Example 130, 2-(4-Acetylamino-benzenesulfonyl)-N-hydroxy-3-phenyl-propionamide]			27.9	28	
CCCCCCC(C(=O)NO)S(=O)(=O)c1cc(Cl)ccc1Cl (centres unmarked) [Example 161, 2-(2,5-Dichlorobenzenesulfonyl)-octanoic acid hydroxyamide]			12.7	0	
